Results taken from publication PMC6934184, “Selective DNA-PKcs inhibition extends the therapeutic index of localized radiotherapy and chemotherapy” (The Journal of Clinical Investigation, 2019).

Target: T1, CDK2/cyclin O (Homo sapiens, UniProt P24941)
T1 construct: purchased Thermo Fisher Scientific (Life Technologies) SelectScreen
Test: SelectScreen LanthaScreen
Assay type: binding
Conditions: 1 µM
Summary of the method: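 SelectScreen broad panel; activity (Z'LYTE, Adapta) plus binding formats. ATP: Km app for CSF1R Z'LYTE; 10 for CAMK1 Adapta. Readout = % per kinase.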

For CN(C(=O)CN1CCOCC1)c1ccc2sc3c(-c4cccc5c(=O)cc(N6CC7CCC(C6)O7)oc45)cccc3c2c1 [NU5455], which “% displacement” value is on record?
The value was 0.9%.
